Assay results as given in patent US9404192B2, “Highly stable electrolytic water with reduced NMR half line width” (priority 2007, dated 2016).

Test system: Reconstructed Human Epidermids (RHEs)
Assay: trans-epithelial electrical resistance (TEER) testing
Type: cell-based
Settings: SDS 0.1% solution on RHE, FIG. 3
Procedure: The formulations described in Tables B-F were tested for their effect on trans-epithelial electrical resistance according to the following procedure.
1 ml of saline solution is directly applied on the tissue placed in a 6 well plate containing 4 ml of saline solution as well.
The instrument Millicell-ERS (range 0-20 kΩ) is placed with the two electrodes in the two chambers and the measure is recorded directly and reported in the laboratory note book.
Five measurements for each tissue have been done: because of the variability within the tissues the measurement done at t=0 has been taken as basal value and reference of each single tissue.
At the arrival the tissues have been placed in 6 well plates with maintenance medium (SkinEthic) for 2 hours before the TEER measurements.
The basal TEER value is measured on all the tissue as described in the method.
The tissues have been recovered in maintenance medium (1 ml) and the test items have been applied at the dose of 50 μl.
Tissues have been finally incubated at 37° C. in 5% CO2 incubator.
The tissues have been rinsed with saline solution and the second TEER measurement, corresponding to the 24 h exposure, has been performed.
The RHEs have been recovered in fresh maintenance medium (1 ml) for a 24 h post incubation time. […]

With `CCCCCCCCCCCCOS(=O)(=O)[O-].[Na+]` [sodium dodecyl sulphate] the TEER was “strong decrease of TEER”.
